We go through 77 compounds from the RepoRT retention time repository.

The data set can be described thus: RP, Waters ACQUITY Premier BEH C18, 100 × 2.1 mm, 1.7 µm, 40 °C, 0.3 to 0.4 mL/min, estimated dead time 0.73 min; A: water + 0.1% formic acid; B: acetonitrile + 0.1% formic acid; gradient (min/%B) 0/0.5 0.1/0.5 10/80 10.1/99.5 12/0.5 12.1/0.5 14.5/0.5. Particulars: stereoisomer not certain.
As for `O=C1OCC(Cc2cccc(O)c2)C1Cc1cccc(O)c1` (configuration not stated) [ENTEROLACTONE], the LC retention time is 6.68 min.

`CC(C)=CCCC(C)C1CCC2C3CC=C4CC(O)CCC4(C)C3CCC12C` (configuration not stated) [DESMOSTEROL]: the LC retention time was 9.25 min. Regarding `CCOC(=O)Cc1c[nH]c2ccccc12` [ETHYL 3-INDOLEACETATE], the LC retention time is 7.2 min. As to `CC(C)C(=O)OC(CC(=O)[O-])C[N+](C)(C)C` [ISOBUTYRYL-L-CARNITINE], the LC retention time was 3.82 min. With `COC(=O)CCCC(=O)O` [MONOMETHYLGLUTARATE], the LC retention time was 3.95 min.

Consider `CCC(CO)C(=O)O` (configuration not stated) [2-ETHYLHYDRACRYLIC ACID], for which the LC retention time is 3.81 min.

In the case of `CC1OC(O)C(O)C(O)C1O` (configuration not stated) [RHAMNOSE], the LC retention time is 0.913 min.

As for `O=C(O)CNC(=O)c1cccc(O)c1` [3-HYDROXYHIPPURIC ACID], the LC retention time is 3.03 min. On to `O=C(O)CP(=O)(O)O` [PHOSPHONOACETATE], for which the LC retention time is 0.959 min. On to `CC(CCC(=O)O)C1CCC2C3C(O)CC4CC(O)CCC4(C)C3CC(O)C12C` (configuration not stated) [CHOLATE], for which the LC retention time was 7.13 min. `O=C(O)c1ccnc2ccccc12` [4-QUINOLINECARBOXYLATE]: the LC retention time is 3.01 min. As for `CC1C(=O)OC2C(O)C34C5CC(C(C)(C)C)C36C(OC(=O)C6O)OC4(C(=O)O5)C12O` (configuration not stated) [GINKGOLIDE B], the LC retention time is 5.64 min. As for `CC(=O)OC1CC2CCC1(C)C2(C)C` (single isomer, unassigned; (-)) [(-)-BORNYL ACETATE], the LC retention time is 7.47 min. On to `OCC1OC(Oc2ccc(O)cc2)C(O)C(O)C1O` (configuration not stated) [ARBUTIN], for which the LC retention time was 1.12 min. Turning to `CC(=O)OCC(=O)C1CCC2C3CCC4=CC(=O)CCC4(C)C3CCC12C` (configuration not stated) [DEOXYCORTICOSTERONE ACETATE], the LC retention time is 7.64 min. Regarding `CC1OC(OCC2OC(Oc3c(-c4ccc(O)c(O)c4)oc4cc(O)cc(O)c4c3=O)C(O)C(O)C2O)C(O)C(O)C1O` (configuration not stated) [RUTIN], the LC retention time was 4.25 min. With `Nc1c(O)cccc1C(=O)CC(N)C(=O)O` (configuration not stated) [HYDROXYKYNURENINE] the figure was 2.07 min; with `O=C(O)CCCCCCCO` [8-HYDROXYOCTANOATE], 5.04 min. For `CCCCCC=CCC=CCCCCCCCC(=O)O` [LINOLEATE], the LC retention time was 7.75 min. As to `CCCCCCCCC=CCCCCCCCC(=O)OCC(O)CO` (configuration not stated) [OLEOYL-GLYCEROL], the LC retention time was 9.52 min.

For the compound `CC(C(=O)O)C(O)(CC(=O)O)C(=O)O` (configuration not stated) [2-METHYLCITRATE], the LC retention time is 3.44 min. With `CC(O)(CCO)CC(=O)O` (configuration not stated) [MEVALONATE] the figure was 2.75 min; with `COc1ccc(C2CC(=O)c3c(O)cc(OC4OC(COC5OC(C)C(O)C(O)C5O)C(O)C(O)C4O)cc3O2)cc1O` (configuration not stated) [HESPERIDINE], 4.77 min; with `CC(=O)NC(CC(N)=O)C(=O)O` (configuration not stated) [N-ACETYLASPARAGINE], 1.1 min. As for `COC(=O)c1ccc(O)cc1` [METHYLPARABEN], the LC retention time is 5.79 min. With `CC1OC(Oc2c(-c3ccc(O)c(O)c3)oc3cc(O)cc(O)c3c2=O)C(O)C(O)C1O` (configuration not stated) [QUERCITRIN] the figure was 4.68 min. Take `COc1ccc2[nH]cc(CCN)c2c1` [5-METHOXYTRYPTAMINE]: the LC retention time is 3.73 min. As to `CC(=O)Nc1c(NC=O)[nH]c(=O)n(C)c1=O` [5-ACETYLAMINO-6-FORMYLAMINO-3-METHYLURACIL], the LC retention time was 1.11 min. As for `COc1ccc2c3c([nH]c2c1)C(C)=NCC3` [HARMALINE], the LC retention time is 4.51 min. Consider `CC1OC(OC2C(Oc3cc(O)c4c(c3)OC(c3ccc(O)cc3)CC4=O)OC(CO)C(O)C2O)C(O)C(O)C1O` (configuration not stated) [NARINGIN], for which the LC retention time was 4.7 min.

Turning to `CCCCCCCCCCCCCC(=O)OCC(O)CO` (configuration not stated) [GLYCEROL-MYRISTATE], the LC retention time was 8.67 min. Turning to `Cc1c[nH]c(=O)[nH]c1=O` [THYMINE], the LC retention time was 2.99 min. Consider `CC(CCC(=O)NCC(=O)O)C1CCC2C3CCC4CC(O)CCC4(C)C3CCC12C` (configuration not stated) [LITHOCHOLIC ACID GLYCINE CONJUGATE], for which the LC retention time is 7.62 min. The same measure for `Cn1c(=O)c2c([nH]c(=O)n2C)n(C)c1=O` [1,3,7-TRIMETHYLURIC ACID]: 3.23 min; for `CC12CCC(=O)C=C1CCC1C2C(O)CC2(C)C(C(=O)CO)CCC12` (configuration not stated) [CORTICOSTERONE]: 6.67 min.

With `CC1C(=O)OC2C(O)C34C5OC(=O)C3(OC3OC(=O)C(O)C34C(C(C)(C)C)C5O)C12O` (configuration not stated) [GINKGOLIDE C], the LC retention time was 4.74 min.

For `O=C(O)C[C@H]1CC[C@@H](O)CC1` [CIS-4-HYDROXYCYCLOHEXYLACETIC ACID], the LC retention time was 4.12 min. The same measure for `CC(CCC(=O)NCC(=O)O)C1CCC2C3CCC4CC(O)CCC4(C)C3CC(O)C12C` (configuration not stated) [DEOXYCHOLIC ACID GLYCINE CONJUGATE]: 7.24 min. Turning to `O=c1c(O)c(-c2ccc(O)cc2O)oc2cc(O)cc(O)c12` [MORIN], the LC retention time is 5.82 min. With `Nc1cc(C(=O)O)ccc1O` [3-AMINO-4-HYDROXYBENZOATE], the LC retention time was 1.37 min. `Cc1cn(C2CC(O)C(COP(=O)(O)OP(=O)(O)OC3OC(CO)C(O)C(O)C3O)O2)c(=O)[nH]c1=O` [DTDP-D-GLUCOSE]: the LC retention time was 1.82 min. `CSCCC(O)C(=O)O` (configuration not stated) [2-HYDROXY-4-(METHYLTHIO)BUTANOATE]: the LC retention time was 4.06 min. `CCCCCCCCCCCCCC(=O)OC(CC(=O)[O-])C[N+](C)(C)C` (configuration not stated) [TETRADECANOYLCARNITINE]: the LC retention time was 7.44 min. Take `O=C(O)CC(=O)O` [MALONATE]: the LC retention time was 1.21 min.

Consider `CC(C)CC(=O)OC(CC(=O)[O-])C[N+](C)(C)C` (configuration not stated) [ISOVALERYLCARNITINE], for which the LC retention time was 4.39 min. Consider `O=C(O)C=Cc1cccc(O)c1` [M-COUMARIC ACID], for which the LC retention time was 4.77 min. As for `CCNC(=O)CC[C@H](N)C(=O)O` [L-THEANINE], the LC retention time was 0.897 min. As for `CCCCCCCCCC(=O)OCC(COP(=O)([O-])OCC[N+](C)(C)C)OC(=O)CCCCCCCCC` (configuration not stated) [DIDECANOYL-GLYCEROPHOSPHOCHOLINE], the LC retention time is 8.51 min. Turning to `O=C(O)CCCCCCCCC(=O)O` [SEBACATE], the LC retention time is 6.03 min. With `CNCC(O)c1ccc(O)cc1` [D-SYNEPHRINE], the LC retention time is 0.927 min. Consider `O=C(O)CCCCCCCCCCCO` [OMEGA-HYDROXYDODECANOATE], for which the LC retention time was 6.99 min. The same measure for `CC(=O)OCC[N+](C)(C)C` [ACETYLCHOLINE]: 0.961 min. For `O=c1c(O)c(-c2ccc(O)c(O)c2)oc2cc(O)cc(O)c12` [QUERCETIN], the LC retention time was 5.6 min. The same measure for `O=C(O)C(O)Cc1ccc(O)cc1` (configuration not stated) [HYDROXYPHENYLLACTATE]: 4.05 min. Take `O=C(O)Cc1cnc[nH]1` [4-IMIDAZOLEACETATE]: the LC retention time is 0.92 min. On to `CC12CCC(=O)C=C1CCC1C2C(=O)CC2(C)C1CCC2(O)C(=O)CO` (configuration not stated) [CORTISONE], for which the LC retention time was 6.12 min.

`Nc1nc2[nH]c(=O)cnc2c(=O)[nH]1` [ISOXANTHOPTERIN]: the LC retention time was 1.02 min. With `CS(=O)CCCCN=C=S` (configuration not stated) [SULFORAPHANE] the figure was 4.72 min; with `O=C(O)c1cc(=O)c2ccccc2[nH]1` [KYNURENATE], 4.18 min; with `Cc1cc2nc3c(=O)[nH]c(=O)nc-3n(CC(O)C(O)C(O)CO)c2cc1C` (configuration not stated) [RIBOFLAVIN], 4.4 min. The same measure for `O=C(O)CCc1ccc(O)c(O)c1` [3,4-DIHYDROXYHYDROCINNAMIC ACID]: 4.42 min. Take `OCCc1c[nH]c2ccccc12` [INDOLE-3-ETHANOL]: the LC retention time was 5.81 min. The same measure for `O=C(OC1Cc2c(O)cc(O)cc2OC1c1cc(O)c(O)c(O)c1)c1cc(O)c(O)c(O)c1` (single isomer, unassigned; (-)) [(-)-EPIGALLOCATECHIN-3-GALLATE]: 3.98 min; for `CCC(NC(=O)CCC(N)C(=O)O)C(=O)NCC(=O)O` (configuration not stated) [OPHTHALMATE]: 2.03 min. With `O=c1c(-c2ccc(O)cc2)coc2cc(O)ccc12` [DAIDZEIN] the figure was 5.4 min; with `Nc1ccn(C2CC(O)C(CO)O2)c(=O)n1` (configuration not stated) [DEOXYCYTIDINE], 1.78 min; with `CC(C=CC=C(C)C=CC1=C(C)C(=O)CCC1(C)C)=CC=CC=C(C)C=CC=C(C)C=CC1=C(C)C(=O)CCC1(C)C` [CANTHAXANTHIN], 11.3 min. The same measure for `CSCCC(N)C(=O)O` (configuration not stated) [ISTD_METHIONINE-METHYL-D3]: 1.46 min; for `CC(CCC(=O)O)C1CCC2C3CCC4CC(O)CCC4(C)C3CCC12C` (configuration not stated) [LITHOCHOLATE]: 8.27 min. For the compound `N#CC(OC1OC(COC2OC(CO)C(O)C(O)C2O)C(O)C(O)C1O)c1ccccc1` (configuration not stated) [AMYGDALIN], the LC retention time was 3.78 min.

On to `O=c1c(O)c(-c2ccc(O)cc2)oc2cc(O)cc(O)c12` [KAEMPFEROL], for which the LC retention time is 6.13 min. On to `O=C(O)CNC(=O)Cc1ccccc1` [PHENYLACETYLGLYCINE], for which the LC retention time was 4.21 min. Take `CC(=O)NC1C(O)CC(O)(C(=O)O)OC1C(O)C(O)CO` (configuration not stated) [N-ACETYLNEURAMINATE]: the LC retention time is 0.9 min. In the case of `NC(Cc1cc(I)c(Oc2cc(I)c(O)c(I)c2)c(I)c1)C(=O)O` (configuration not stated) [THYROXINE], the LC retention time is 6.62 min. In the case of `CC1OC(OC2C(O)C(OCCc3ccc(O)c(O)c3)OC(CO)C2OC(=O)C=Cc2ccc(O)c(O)c2)C(O)C(O)C1O` (configuration not stated) [ACTEOSIDE], the LC retention time is 4.38 min. With `OCC1OC(Oc2ccc3c(c2)OCC2c4cc5c(cc4OC32)OCO5)C(O)C(O)C1O` (configuration not stated) [TRIFOLIRHIZIN], the LC retention time was 4.35 min. For `Nc1ccn(C2OC(CO)C(O)C2O)c(=O)n1` (configuration not stated) [CYTIDINE], the LC retention time was 1.41 min.
